We go through two compounds from patent EP1260509A1, “Uses of tocopherol esters” (Derma Developpement S.A.R.L., priority 2001, dated 2002).

Test [1] deals with T1, tyrosine kinase (Homo sapiens, UniProt P14679).
T1 construct: endogenous in cells; host or cells: human melanocytes (cultured)
Put plainly: Tyrosine kinase (tyrosinase) activity in human melanocytes, L-Dopamine substrate, absorbance at 475 nm. In kind it is cell-based, humains. Particulars: hydroquinone 1 µg/mL (positive control), 72 h; témoin 0.044 ± 0.002. As for the experimental part: Les mélanocytes humains sont ensemencés à la densité de 50 000 cellules/cm^2 dans des plaques multipuits. Les cellules sont incubées à 37°C en atmosphère humide contenant 5% (v/v) de CO2. Le milieu de culture est le MCDB 153 supplémenté par l'EGF (5 ng/mL) (Sigma), l'insuline (5 µg/mL)(Sigma), l'hydrocortisone (5 ng/mL)(Sigma),du sérum de veau foetal (SVF) à 5 % (v/v)( Gibco). Le milieu de culture est remplacé après 24 heures de culture et supplémenté par des antibiotiques (Peni-Strepto)(Gibco) à 1% (V/v) contenant les différentes concentrations d'un ester de tocophéryle avec un acide gras mono ou polyinsaturé ( 1, 10 et 100 µg/mL).
Une série « témoin positif» est constituée de cellules traitées à l'hydroquinone à 1 µg/mL.
Les cellules sont incubées pendant 72 heures à 37°C en atmosphère humide contenant 5% (v/v) de CO2. A la fin de la période d'incubation, le milieu de culture est prélevé et la couche cellulaire rincée deux fois avec du PBS. 450 µL de Triton X100 à 1% (v/v) dans le PBS sont ajouté dans chaque puits. On agite pendant 10 minutes puis on ajoute 50 µL de L-Dopamine à 10 mM dans du PBS sans Ca^++ ni Mg ^++
On laisse incuber pendant 1 heure à 37°C à l'abri de la lumière, puis on mesure l'absorption à 475 nm au spectrophotomètre. Tableau 1

The subject of test [2] is fibroblastes de derme humain. Nature of the test: Mitochondrial activity of human dermal fibroblasts (rhodamine 123 fluorescence, semi-quantitative score). Particulars: antimycine 0,5 µM (positive control), 72 h. It is filed as cell-based. As for the experimental part: Les fibroblastes de derme humain sont ensemencées à la densité de 5000 cellules/cm^2 dans 500 µl de milieu IMDM supplémenté par du SVF 10% pendant 24 heures en atmosphère humide contenant 5% (v/v) de CO2
Après 24 heures, les cellules sont mises en contact avec les différentes concentrations d'un ester de tocophéryle avec un acide gras mono ou polyinsaturé ( 10, 50 et 100 µg/ml).
Une série « témoin positif» est constituée de cellules traitées à l'antimycine à 0,5 µM.
Principe : L'incorporation cellulaire de rhodamine 123 est la conséquence de la variation du potentiel transmembranaire mitochondrial. L'évaluation semi-quantitative de la respiration mitochondriale est basée sur l'intensité de la fluorescence à l'intérieur de la cellule.
Les cellules sont incubées pendant 72 heures à 37°C en atmosphère humide contenant 5% (v/v) de CO2. A la fin de la période d'incubation, le milieu de culture est prélevé et la couche cellulaire rincée deux fois avec du milieu IMDM puis mise dans 500 µl de tampon phosphate pH 7.2 contenant 0.1 mg/ml de rhodamine 123.
On laisse incuber pendant 15 minutes à 37 °C, puis on mesure la fluorescence de façon semi-quantitative à l'aide d'une échelle de cotation.
Echelle de cotation (Intensité de fluorescence) : 0 : cytoplasme non fluorescent, 1 : faible; 2 : moyennement intense; 3 : Importante; 4 : Très importante, tout le cytoplasme est fluorescent.

T1 sequence (P14679 19-529): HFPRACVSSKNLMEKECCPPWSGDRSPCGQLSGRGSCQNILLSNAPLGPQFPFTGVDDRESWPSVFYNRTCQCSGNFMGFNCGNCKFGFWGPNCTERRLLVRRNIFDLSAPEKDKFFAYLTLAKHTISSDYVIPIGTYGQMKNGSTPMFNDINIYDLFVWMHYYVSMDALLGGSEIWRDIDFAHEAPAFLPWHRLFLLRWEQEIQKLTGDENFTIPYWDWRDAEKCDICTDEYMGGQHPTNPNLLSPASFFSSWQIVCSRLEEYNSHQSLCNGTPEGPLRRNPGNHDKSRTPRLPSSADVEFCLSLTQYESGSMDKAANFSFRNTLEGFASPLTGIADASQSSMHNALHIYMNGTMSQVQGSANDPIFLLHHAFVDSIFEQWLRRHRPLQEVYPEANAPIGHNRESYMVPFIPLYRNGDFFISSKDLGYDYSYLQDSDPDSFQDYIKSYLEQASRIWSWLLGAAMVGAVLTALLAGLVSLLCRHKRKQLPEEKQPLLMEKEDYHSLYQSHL

Consider `Oc1ccc(O)cc1` [hydroquinone], for which the “moyenne absorbance à 475 nm” value in test [1] was 0.024 ± 0.001.
Regarding antimycine, the “cellules, intensité de fluorescence 4 : Très importante, tout le cytoplasme est fluorescent” value in test [2] (témoin 12,3 ± 2,1) is on record as 10,7 ± 2,5. Further, the “cellules, intensité de fluorescence 0 : cytoplasme non fluorescent” value in test [2] (témoin 17,7 ± 2,1) was 25,0 ± 4,1. The “cellules, intensité de fluorescence 1 : faible” value in test [2] (témoin 21,0 ± 2,9) is listed as 16,3 ± 1,9. The “cellules, intensité de fluorescence 2 : moyennement intense” value in test [2] (témoin 25,0 ± 2,4) was 20,0 ± 1,6. For the same compound, in test [2] (témoin 25,7 ± 3,1), the “cellules, intensité de fluorescence 3 : Importante” value was 13,3 ± 2,4.
